Literature values in US6605639B1, “Ligands of nuclear receptor” (Nuclear Receptor Research, Ltd., priority 1998, dated 2003).

Legend:
[1] = tested on: hereditary obese diabetic mice ob/ob and db/db; conditions: oral; cited from earlier work
[2] = tested on: patients; conditions: at the normal dose; cited from earlier work

Row | SMILES | blood glucose levels, serum neutral fat levels and serum insulin levels [1] | patients with hepatopathy [2]
1 | C=C(c1ccc(C(=O)O)cc1)c1cc2c(cc1C)C(C)(C)CCC2(C)C [LGD1069] | drastically lower | 
2 | Cc1c(C)c2c(c(C)c1O)CCC(C)(COc1ccc(CC3SC(=O)NC3=O)cc1)O2 (centres unmarked) [troglitazone] |  | about 2%
